Measured values taken from the supplement of paper PMC10307832.

Assays:
Test in all cases: relative viability (nuclei count vs DMSO), 5 days (fraction); higher = more cells survive
NCI-H1792 = test system: NCI-H1792
Outline: (§1)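 Nuclei were stained with Hoechst during a one-step fixation (final 0.05% Triton X-100, 1% formaldehyde, 1 ug/ml Hoechst) carried out 5 days after dosing, then counted on 4× images. The cells, lung cancer lines in 1536-well plates, had been dosed by pin tool the day after seeding with one drug alone or a fixed anchor-drug dose plus five library-drug doses (not always all listed) in √10 steps. Relative viability is the nuclei count in treated wells divided by that in vehicle wells, and each value is the median of duplicate plates.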

COR-L 105 = test system: COR-L 105
Outline: as §1

NCI-H1975 = test system: NCI-H1975
Outline: as §1

NCI-H358 = test system: NCI-H358
Outline: as §1

NCI-H838 = test system: NCI-H838
Outline: as §1

BEN = test system: BEN
Outline: as §1

NCI-H1666 = test system: NCI-H1666
Outline: as §1

NCI-H23 = test system: NCI-H23
Outline: as §1

EKVX = test system: EKVX
Outline: as §1

HCC-15 = test system: HCC-15
Outline: as §1

NCI-H1437 = test system: NCI-H1437
Outline: as §1

HARA = test system: HARA
Outline: as §1

LK-2 = test system: LK-2
Outline: as §1

COR-L23 = test system: COR-L23
Outline: as §1

NCI-H441 = test system: NCI-H441
Outline: as §1

NCI-H650 = test system: NCI-H650
Outline: as §1

SW 900 = test system: SW 900
Outline: as §1

A-427 = test system: A-427
Outline: as §1

HCC-827 = test system: HCC-827
Outline: as §1

201T = test system: 201T
Outline: as §1

SK-MES-1 = test system: SK-MES-1
Outline: as §1

NCI-H596 = test system: NCI-H596
Outline: as §1

## NC(=O)Nc1cc(-c2cccc(F)c2)sc1C(=O)N[C@H]1CCCNC1 [AZD7762] + Cc1nc(Nc2ncc(C(=O)Nc3c(C)cccc3Cl)s2)cc(N2CCN(CCO)CC2)n1 [Dasatinib] (partner 0.075 µM)
NCI-H1792; first compound 0.01 µM
  relative viability: 0.814
NCI-H1792; first compound 0.03162 µM
  relative viability: 0.861
NCI-H1792; first compound 0.1 µM
  relative viability: 0.753
NCI-H1792; first compound 0.3162 µM
  relative viability: 0.891
NCI-H1792; first compound 1 µM
  relative viability: 0.873
COR-L 105; first compound 0.01 µM
  relative viability: 0.324
COR-L 105; first compound 0.03162 µM
  relative viability: 0.342
COR-L 105; first compound 0.1 µM
  relative viability: 0.324
COR-L 105; first compound 0.3162 µM
  relative viability: 0.251
COR-L 105; first compound 1 µM
  relative viability: 0.239
NCI-H1975; first compound 0.01 µM
  relative viability: 0.339
NCI-H1975; first compound 0.03162 µM
  relative viability: 0.347
NCI-H1975; first compound 0.1 µM
  relative viability: 0.42
NCI-H1975; first compound 0.3162 µM
  relative viability: 0.305
NCI-H1975; first compound 1 µM
  relative viability: 0.242
NCI-H358; first compound 0.01 µM
  relative viability: 0.151
NCI-H358; first compound 0.03162 µM
  relative viability: 0.182
NCI-H358; first compound 0.1 µM
  relative viability: 0.188
NCI-H358; first compound 0.3162 µM
  relative viability: 0.167
NCI-H358; first compound 1 µM
  relative viability: 0.17
NCI-H838; first compound 0.01 µM
  relative viability: 0.322
NCI-H838; first compound 0.03162 µM
  relative viability: 0.276
NCI-H838; first compound 0.1 µM
  relative viability: 0.258
NCI-H838; first compound 0.3162 µM
  relative viability: 0.251
NCI-H838; first compound 1 µM
  relative viability: 0.24
BEN; first compound 0.01 µM
  relative viability: 0.253
BEN; first compound 0.03162 µM
  relative viability: 0.297
BEN; first compound 0.1 µM
  relative viability: 0.282
BEN; first compound 0.3162 µM
  relative viability: 0.301
BEN; first compound 1 µM
  relative viability: 0.328
NCI-H1666; first compound 0.01 µM
  relative viability: 0.909
NCI-H1666; first compound 0.03162 µM
  relative viability: 0.88
NCI-H1666; first compound 0.1 µM
  relative viability: 0.838
NCI-H1666; first compound 0.3162 µM
  relative viability: 0.593
NCI-H1666; first compound 1 µM
  relative viability: 0.594
NCI-H23; first compound 0.01 µM
  relative viability: 0.961
NCI-H23; first compound 0.03162 µM
  relative viability: 0.832
NCI-H23; first compound 0.1 µM
  relative viability: 0.877
NCI-H23; first compound 0.3162 µM
  relative viability: 0.567
NCI-H23; first compound 1 µM
  relative viability: 0.313
EKVX; first compound 0.01 µM
  relative viability: 0.623
EKVX; first compound 0.03162 µM
  relative viability: 0.615
EKVX; first compound 0.1 µM
  relative viability: 0.337
EKVX; first compound 0.3162 µM
  relative viability: 0.543
EKVX; first compound 1 µM
  relative viability: 0.521
HCC-15; first compound 0.01 µM
  relative viability: 0.582
HCC-15; first compound 0.03162 µM
  relative viability: 0.592
HCC-15; first compound 0.1 µM
  relative viability: 0.592
HCC-15; first compound 0.3162 µM
  relative viability: 0.561
HCC-15; first compound 1 µM
  relative viability: 0.52
NCI-H1437; first compound 0.01 µM
  relative viability: 0.346
NCI-H1437; first compound 0.03162 µM
  relative viability: 0.586
NCI-H1437; first compound 0.1 µM
  relative viability: 0.427
NCI-H1437; first compound 0.3162 µM
  relative viability: 0.286
NCI-H1437; first compound 1 µM
  relative viability: 0.307
HARA; first compound 0.01 µM
  relative viability: 0.306
HARA; first compound 0.03162 µM
  relative viability: 0.304
HARA; first compound 0.1 µM
  relative viability: 0.275
HARA; first compound 0.3162 µM
  relative viability: 0.286
HARA; first compound 1 µM
  relative viability: 0.164
LK-2; first compound 0.01 µM
  relative viability: 0.269
LK-2; first compound 0.03162 µM
  relative viability: 0.266
LK-2; first compound 0.1 µM
  relative viability: 0.283
LK-2; first compound 0.3162 µM
  relative viability: 0.27
LK-2; first compound 1 µM
  relative viability: 0.298
COR-L23; first compound 0.01 µM
  relative viability: 0.477
COR-L23; first compound 0.03162 µM
  relative viability: 0.528
COR-L23; first compound 0.1 µM
  relative viability: 0.515
COR-L23; first compound 0.3162 µM
  relative viability: 0.313
COR-L23; first compound 1 µM
  relative viability: 0.0945
NCI-H441; first compound 0.01 µM
  relative viability: 0.773
NCI-H441; first compound 0.03162 µM
  relative viability: 0.68
NCI-H441; first compound 0.1 µM
  relative viability: 0.555
NCI-H441; first compound 0.3162 µM
  relative viability: 0.556
NCI-H441; first compound 1 µM
  relative viability: 0.384
NCI-H650; first compound 0.01 µM
  relative viability: 0.455
NCI-H650; first compound 0.03162 µM
  relative viability: 0.539
NCI-H650; first compound 0.1 µM
  relative viability: 0.475
NCI-H650; first compound 0.3162 µM
  relative viability: 0.505
NCI-H650; first compound 1 µM
  relative viability: 0.412
SW 900; first compound 0.01 µM
  relative viability: 0.421
SW 900; first compound 0.03162 µM
  relative viability: 0.776
SW 900; first compound 0.1 µM
  relative viability: 0.625
SW 900; first compound 0.3162 µM
  relative viability: 0.674
SW 900; first compound 1 µM
  relative viability: 0.165
A-427; first compound 0.01 µM
  relative viability: 0.83
A-427; first compound 0.03162 µM
  relative viability: 0.669
A-427; first compound 0.1 µM
  relative viability: 0.812
A-427; first compound 0.3162 µM
  relative viability: 0.663
A-427; first compound 1 µM
  relative viability: 0.218
HCC-827; first compound 0.01 µM
  relative viability: 0.418
HCC-827; first compound 0.03162 µM
  relative viability: 0.335
HCC-827; first compound 0.1 µM
  relative viability: 0.302
HCC-827; first compound 0.3162 µM
  relative viability: 0.31
HCC-827; first compound 1 µM
  relative viability: 0.186
201T; first compound 0.01 µM
  relative viability: 0.592
201T; first compound 0.03162 µM
  relative viability: 0.584
201T; first compound 0.1 µM
  relative viability: 0.602
201T; first compound 0.3162 µM
  relative viability: 0.567
201T; first compound 1 µM
  relative viability: 0.473
SK-MES-1; first compound 0.01 µM
  relative viability: 0.413
SK-MES-1; first compound 0.03162 µM
  relative viability: 0.468
SK-MES-1; first compound 0.1 µM
  relative viability: 0.302
SK-MES-1; first compound 0.3162 µM
  relative viability: 0.131
SK-MES-1; first compound 1 µM
  relative viability: 0.117
NCI-H596; first compound 0.01 µM
  relative viability: 0.66
NCI-H596; first compound 0.03162 µM
  relative viability: 0.632
NCI-H596; first compound 0.1 µM
  relative viability: 0.715
NCI-H596; first compound 0.3162 µM
  relative viability: 0.611
NCI-H596; first compound 1 µM
  relative viability: 0.481
